Assay results from patent publication US20110028447A1, “INDAZOLE DERIVATIVES” (Pfizer Inc., priority 2008, published 2011).
Like-named read-outs stand apart in the source and are kept apart here.

Target: human CB1 receptor (Homo sapiens, UniProt P21554)
Assay: Human CB1 receptor binding, [3H] CP-55,940 displacement on HEK cell membranes
Design: expressed in transfected cells; host or cells: HEK cells, doxycycline-induced; membrane preparation
Description: The Human CB1 receptor binding affinity and other biological activities of the compounds of this invention are determined by the following procedures. Membrane preparation: Human Embryonic Kidney (HEK) Cells expressing the human CB1 receptor under transcriptional regulation of a tetracycline inducible promoter were grown in Dulbecco's Modified Essential Medium with sodium pyruvate (Invitrogen, Carlsbad, Calif.) containing 10% tetracycline free fetal bovine serum (Clonetech, Mountain View, Calif.) 100 μg/ml hygromycin (Calbiochem, San Diego, Calif.), 5 μg/ml blasticidin (Invitrogen). CB1 receptor expression was induced by addition of 1 μg/ml doxycycline (Calbiochem) and incubation for an additional 24 hours. Cells were released from flasks using Cell Dissociation Buffer (Invitrogen). Cells were pelleted by centrifugation at 500×G for 5 minutes. Membranes were prepared by resuspending cells in ice cold TEE Buffer (25 mM Tris pH 7.4, 5 mM EDTA, 5 mM EGTA, Complete Protease Inhibitor (Roche, Basel, Switzerland)). Cells were lysed with 12 strokes of a dounce homogenizer. Unlysed cells were pelleted by centrifugation at 500×G for 5 minutes. Membranes were pelleted by centrifugation at 25,000×G for 30 minutes. Membranes were resuspended in TEE, dounced 12 strokes, and pelleted a second time at 25,000×G for 30 minutes. Membrane pellet was resuspended in 50 mM Tris pH 7.4, 100 mM NaCl, 3 mM MgCl2, 0.2 mM EGTA, Complete Protease Inhibitor (Roche). Protein concentration was determined using the Micro-BCA Protein Assay Kit (Pierce, Rockford, Ill.) using BSA as a standard. Membranes were quick frozen and stored at −80 degrees Celsius until use.
Binding experiments: 50 μl of test compound was incubated with 50 μl of [^3H] CP-55,940 (Perkin Elmer, Boston, Mass.) (final concentration=[…]) and 150 μl of membrane homogenate (1 μg/well) in polypropylene 96-well plates (Corning, Acton, Mass.). Final reaction conditions were 50 mM Tris pH 7.4, 100 mM NaCl, 3 mM MgCl2, 0.2 mM EGTA, 0.04% BSA. Nonspecific binding was determined by incubation with 50 μM WIN-55, 212-2 (Tocris, Ellisville, Mo.). After incubation at room temperature for 60 minutes reactions were harvested by vacuum filtration through Unifilter GF/B-96 filters (Perkin Elmer) that had been presoaked in assay buffer containing 0.5% BSA (Sigma, St. Louis, Mo.) using a FilterMate Plate Harvester (Perkin Elmer). Filters were rinsed 4 times with 50 mM Tris pH 7.4, 0.025% Tween-20 and dried at 50 degrees Celsius for at least 30 minutes. 40 μl of Microscint-20 (Perkin Elmer) was added per well, and plates were counted using a Top-Count Microplate Scintillation Counter (Perkin Elmer). Binding data were analyzed and EC50 and K, values calculated using Graph Pad Prism 4.0 Software.

human CB1 receptor, sequence (P21554 whole entry): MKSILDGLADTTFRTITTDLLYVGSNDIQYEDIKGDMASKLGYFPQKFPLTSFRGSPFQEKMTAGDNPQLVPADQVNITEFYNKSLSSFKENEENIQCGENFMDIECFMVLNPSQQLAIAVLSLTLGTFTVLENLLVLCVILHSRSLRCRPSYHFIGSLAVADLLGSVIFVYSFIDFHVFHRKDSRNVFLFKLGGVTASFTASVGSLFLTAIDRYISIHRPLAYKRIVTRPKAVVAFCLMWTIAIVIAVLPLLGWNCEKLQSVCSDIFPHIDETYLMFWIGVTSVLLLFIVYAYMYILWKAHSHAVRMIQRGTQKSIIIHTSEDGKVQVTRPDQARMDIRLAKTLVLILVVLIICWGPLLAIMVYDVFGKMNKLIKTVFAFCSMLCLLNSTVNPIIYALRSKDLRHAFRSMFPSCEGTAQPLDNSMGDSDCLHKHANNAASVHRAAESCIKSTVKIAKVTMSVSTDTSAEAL

Compound | Ki (CB1 Ki) [µM] | Ki (read-out: CB1 Ki) [µM]
NC(=O)[C@H](Cc1ccccc1)NC(=O)c1nn(Cc2ccc(F)cc2)c2ccccc12 [Example 4, N-α-{[1-(4-fluorobenzyl)-1H-indazol-3-yl]carbonyl}-L-phenylalaninamide] | 0.708 | 
Cc1cc(Cn2nc(C(=O)N[C@H](C(N)=O)C(C)(C)C)c3ccccc32)no1 [Example 5, N-[(1S)-1-(aminocarbonyl)-2,2-dimethylpropyl]-1-[(5-methylisoxazol-3-yl)methyl]-1H-indazole-3-carboxamide] | 0.954 | 
CC(C)(C)[C@H](NC(=O)c1nn(Cc2ccc(F)cc2)c2ccccc12)C(=O)NCC(=O)O [Example 9, N-{[1-(4-fluorobenzyl)-1H-indazol-3-yl]carbonyl}-3-methyl-L-valylglycine] | 0.0842 | 
CC(C)(C)C(NC(=O)c1nn(Cc2ccccc2C(N)=O)c2ccccc12)C(N)=O (stereo not shown) [Example 34] |  | 0.154
COc1cccc(C2(NC(=O)[C@@H](NC(=O)c3nn(Cc4ccc(C#N)cc4)c4c(F)cccc34)C(C)(C)C)CC2)c1 [Example 212] |  | 0.0521
CC(C)(C)[C@H](NC(=O)c1nn(Cc2ccc(C#N)cc2)c2c(F)cccc12)C(=O)N[C@H](CO)c1ccccc1 [Example 216] |  | 0.225
CC(C)(C)[C@H](NC(=O)c1nn(Cc2ccc(C#N)cc2)c2ccccc12)C(=O)NCc1nn[nH]n1 [Example 217] | > 0.4 | 
CC(C)(C)[C@H](NC(=O)c1nn(Cc2ccc(F)cc2)c2ccccc12)C(=O)N1C[C@@H]2C[C@H]1CN2C(N)=O [Example 219] |  | > 0.4
CC(C)(C)[C@H](NC(=O)c1nn(Cc2ccc(C#N)cc2)c2c(F)cccc12)C(=O)NCCS(C)(=O)=O [Example 221] | 0.0875 | 
CC(C)(C)[C@H](NC(=O)c1nn(Cc2ccc(C#N)cc2)c2c(F)cccc12)C(=O)NCCS(N)(=O)=O [Example 222] | 0.0214 | 
CC(C)(C)[C@H](NC(=O)c1nn(Cc2ccc(F)cc2)c2ccccc12)C(=O)N1C[C@@H]2C[C@H]1CN2C(=O)CCC(N)=O [Example 227] |  | > 0.4
CC(C)(C)[C@H](NC(=O)c1nn(Cc2ccc(F)cc2)c2ccccc12)C(=O)N1CCC(O)(CNC(=O)C2CC2)CC1 [Example 229] |  | 0.0313
CC(C)(C)[C@H](NC(=O)c1nn(Cc2ccc(F)cc2)c2ccccc12)C(=O)N1C[C@@H]2C[C@H]1CN2CC(O)CO (stereo partly shown) [Example 232] |  | 0.0542
CC(C)(C)[C@H](NC(=O)c1nn(Cc2ccc(F)cc2)c2ccccc12)C(=O)N[C@H](CO)C(=O)O [Example 235] | 0.222 | 
COC(=O)[C@@H](O)CNC(=O)[C@@H](NC(=O)c1nn(Cc2ccc(C#N)cc2)c2ccccc12)C(C)(C)C [Example 237] | > 0.4 | 
CC(C)(C)[C@H](NC(=O)c1nn(Cc2ccc(F)cc2)c2ccccc12)C(=O)N[C@@H](CC(N)=O)C(N)=O [Example 239] |  | 0.0468
CC(C)(C)[C@H](NC(=O)c1nn(Cc2ccc(F)cc2)c2ccccc12)C(=O)N[C@@H](CO)C(=O)O [Example 240] | 0.152 | 
CC(C)(C)[C@H](NC(=O)c1nn(Cc2ccc(F)cc2)c2ccccc12)C(=O)N[C@@H]1CCCC[C@H]1O [Example 248] | 0.108 | 
CC(C)(C)[C@H](NC(=O)c1nn(Cc2ccc(F)cc2)c2ccccc12)C(=O)N[C@H]1CCCC[C@@H]1O [Example 252] | 0.205 | 
CC(C)(C)[C@H](NC(=O)c1nn(Cc2ccc(C(F)(F)F)cc2)c2ccccc12)C(=O)NC[C@H](O)CO [Example 256] | 0.0986 | 
CC(C)(C)[C@H](NC(=O)c1nn(Cc2ccc(C(F)(F)F)cc2)c2ccccc12)C(=O)NCCS(N)(=O)=O [Example 257] | 0.224 | 
CC(C)(C)[C@H](NC(=O)c1nn(Cc2ccc(C(F)(F)F)cc2)c2ccccc12)C(=O)NCCS(C)(=O)=O [Example 258] | > 0.4 | 
CC(C)(C)[C@H](NC(=O)c1nn(Cc2ccc(C(F)(F)F)cc2)c2ccccc12)C(=O)NCC(N)=O [Example 259] | 0.132 | 

Compound | Ki (CB1 Ki) [µM] | Ki (read-out: CB1 Ki) [µM]
CC(C)(C)[C@H](NC(=O)c1nn(Cc2ccc(C(F)(F)F)cc2)c2ccccc12)C(=O)NC[C@@H](O)CO [Example 260] | > 0.4 | 
CC(C)(C)[C@H](NC(=O)c1nn(Cc2ccc(C(F)(F)F)cc2)c2ccccc12)C(=O)NC(CO)CO [Example 261] | 0.0767 | 
CC(C)(C)[C@H](NC(=O)c1nn(Cc2ccc(C(F)(F)F)cc2)c2ccccc12)C(=O)NCCNS(=O)(=O)c1ccc(C#N)cc1 [Example 267] |  | 0.078
CC(C)(C)[C@H](NC(=O)c1nn(Cc2ccc(C#N)cc2)c2ccccc12)C(=O)N1CCS(=O)(=O)CC1 [Example 268] | > 0.4 | 
CC(C)(C)[C@H](NC(=O)c1nn(Cc2ccc(F)cc2)c2ccccc12)C(=O)N1CCS(=O)(=O)CC1 [Example 269] | 0.0238 | 
CC(C)(C)[C@H](NC(=O)c1nn(Cc2cccc3ccccc23)c2ccccc12)C(N)=O [Example 272] | > 0.4 | 
CC(C)(C)[C@H](NC(=O)c1nn(Cc2cccc3ccccc23)c2ccccc12)C(=O)NC1CC1 [Example 273] | > 0.4 | 
CC(C)(C)[C@H](NC(=O)c1nn(Cc2cccc3ccccc23)c2ccccc12)C(=O)NCCO [Example 274] | > 0.4 | 
CC(C)(C)[C@H](NC(=O)c1nn(Cc2cccc3ccccc23)c2ccccc12)C(=O)NCC(N)=O [Example 275] | > 0.4 | 
CC(C)(C)[C@H](NC(=O)c1nn(Cc2cccc3ccccc23)c2ccccc12)C(=O)NC[C@H](O)CO [Example 276] | > 0.4 | 
CC(C)(C)[C@H](NC(=O)c1nn(Cc2ccc(F)cc2)c2ccccc12)C(=O)N1CCCC(C(=O)NCCO)C1 (stereo partly shown) [Example 277] |  | 0.0317
CC(C)(C)[C@H](NC(=O)c1nn(Cc2ccc(F)cc2)c2ccccc12)C(=O)N1CCCC(C(=O)NC[C@H](O)CO)C1 (stereo partly shown) [Example 278] |  | 0.0688
CC(C)(C)[C@H](NC(=O)c1nn(Cc2ccc(F)cc2)c2ccccc12)C(=O)N[C@H]1CCC[C@@H]1O [Example 279] | 0.0541 | 
CC(C)(C)[C@H](NC(=O)c1nn(Cc2ccc(F)cc2)c2ccccc12)C(=O)N[C@H]1CCC[C@H]1O [Example 280] | 0.176 | 
CC(C)(C)[C@H](NC(=O)c1nn(Cc2ccc(C#N)cc2)c2ccccc12)C(=O)NC[C@@H](O)C(N)=O [Example 283] | > 0.4 | 
CC(C)(C)[C@H](NC(=O)c1nn(Cc2ccc(C#N)cc2)c2ccccc12)C(=O)N1C[C@@H](O)[C@@H](O)C1 [Example 285] | 0.0279 | 
CC(C)(C)[C@H](NC(=O)c1nn(Cc2ccc(C#N)cc2)c2c(F)cccc12)C(=O)N[C@H]1CCc2ccccc21 [Example 287] |  | > 0.4
CC(C)(C)[C@H](NC(=O)c1nn(Cc2ccc(F)cc2)c2ccccc12)C(=O)N[C@H](CC(N)=O)C(N)=O [Example 290] |  | 0.092
CC(C)(C)[C@H](NC(=O)c1nn(Cc2ccc(F)cc2)c2ccccc12)C(=O)NCC(=N)N [Example 291] | 0.0012 | 
CC(C)(C)[C@H](NC(=O)c1nn(Cc2ccc(F)cc2)c2ccccc12)C(=O)N1CCC[C@H]1C(=O)NCCO [Example 293] |  | > 0.4
CC(C)(C)[C@H](NC(=O)c1nn(Cc2ccc(F)cc2)c2ccccc12)C(=O)N1CCC[C@H]1C(=O)NC[C@H](O)CO [Example 294] |  | > 0.4
CC(C)(C)[C@H](NC(=O)c1nn(Cc2ccc(C#N)cc2)c2cc(F)ccc12)C(=O)NC(CO)CO [Example 296] | 0.0641 | 
CC(C)(C)[C@H](NC(=O)c1nn(Cc2ccc(C#N)cc2)c2cc(F)ccc12)C(=O)NC[C@@H](O)CO [Example 297] | 0.124 | 
